We go through 14 compounds from US20230348358A1, “Serotonin Receptor Modulators” (Northeastern University, priority 2020, published 2023).

Data set [1] addresses T1, 5HT7 (Homo sapiens, UniProt P34969). Put plainly: Affinity (Ki) at 5HT7, HEK293 cells stably expressing 5HT7.
In data set [2] the target is T2, 5HT1A (Homo sapiens, UniProt P08908).
T2 sequence (P08908 1-422): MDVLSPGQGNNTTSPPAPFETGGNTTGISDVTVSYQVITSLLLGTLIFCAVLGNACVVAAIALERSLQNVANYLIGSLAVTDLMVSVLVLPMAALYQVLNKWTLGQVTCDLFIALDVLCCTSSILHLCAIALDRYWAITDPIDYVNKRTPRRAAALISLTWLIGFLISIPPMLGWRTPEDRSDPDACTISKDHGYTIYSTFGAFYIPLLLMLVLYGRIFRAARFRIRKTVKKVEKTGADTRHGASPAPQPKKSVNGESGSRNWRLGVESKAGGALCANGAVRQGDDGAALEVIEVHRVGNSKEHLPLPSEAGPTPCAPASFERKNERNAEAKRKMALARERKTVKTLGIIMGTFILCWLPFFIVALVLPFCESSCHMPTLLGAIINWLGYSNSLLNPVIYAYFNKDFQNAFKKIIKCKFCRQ
Put plainly: Affinity (Ki) at 5HT1A, transfected HEK cells.

Data set [3] relates to BL/6J mice. Put plainly: Serotonin syndrome-like behavior observation. Format: in vivo, mouse. Particulars: mouse, in vivo.
For data set [4], the system named is C57BL/6J mice. Put plainly: DOI-elicited head-twitch response (HTR). The data set is classed as in vivo, mouse. Particulars: mouse, in vivo. An excerpt:
The 5-HT2A receptor is a predominant 5-HT receptor in the cortex, and serves important excitation modulation functions on glutamate pyramidal and GABA neurons.

The subject of data set [5] is mice (C57BL/6J, FVB, C58/J). Put plainly: Locomotor behavior, compound on its own. The data set is classed as in vivo, mouse. Particulars: for Locomotor behavior: compound on its own or in the DOI assay.
Data set [6] has as its target T3, 5HT2A receptors (Homo sapiens, UniProt P28223).
T3 construct: host or cells: HEK293, transient
The experiment in a line: 5-HT2A function in HEK cells over-expressing the receptor. Format: cell-based.

Data set [7] has as its target T1, 5HT7. Put plainly: 5HT7 function, Gs-cAMP signaling (HEK293 cells). Format: cell-based. Further details: ATCC CRL-1573 (cells). Particulars: for Function at 5HT7: cAMP signaling. An excerpt: It is certain that the C(5) substituent impacts function. […] In FIG. 3, results of measured (S)-5-PAT scaffold yields with various function as 5HT7 ligands are compared with AS-19 and clozapine.

Data set [8] has as its target T3, 5HT2A receptors. The experiment in a line: biochemical. Format: binding.
The subject of data set [9] is 50 CNS/peripheral sites. Put plainly: NIMH PDSP / NIDA evaluation at 50 CNS/peripheral sites. Format: binding.
Data set [10] addresses T4, 5HT2B receptors (Homo sapiens, UniProt P41595).
T4 construct: host or cells: HEK293, transient
The experiment in a line: Affinity at 5HT2B receptors. The data set is classed as binding.

Data set [11] has as its target T5, 5HT2C receptors (Homo sapiens, UniProt P28335).
T5 construct: host or cells: HEK293, transient
T5 sequence (P28335 33-458): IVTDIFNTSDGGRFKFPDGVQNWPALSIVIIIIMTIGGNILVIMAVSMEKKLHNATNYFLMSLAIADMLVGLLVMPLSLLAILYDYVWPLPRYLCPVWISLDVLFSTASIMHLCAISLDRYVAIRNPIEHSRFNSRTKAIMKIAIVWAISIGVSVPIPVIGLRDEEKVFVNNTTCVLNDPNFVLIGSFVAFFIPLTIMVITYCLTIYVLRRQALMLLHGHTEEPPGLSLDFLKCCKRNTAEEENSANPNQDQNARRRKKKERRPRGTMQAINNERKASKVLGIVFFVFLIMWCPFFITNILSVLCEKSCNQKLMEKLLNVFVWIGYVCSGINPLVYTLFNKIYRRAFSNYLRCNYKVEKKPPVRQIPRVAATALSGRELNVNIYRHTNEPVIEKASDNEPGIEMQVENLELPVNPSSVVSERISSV
The experiment in a line: 5HT2C functional assay. Format: cell-based.

Data set [12] has as its target T2, 5HT1A. The experiment in a line: 5HT1A function, Gαi cAMP signaling (CHO cells). Format: cell-based.
In data set [13] the target is T4, 5HT2B receptors. The experiment in a line: 5HT2B functional assays. Format: cell-based.
The target in data set [14] is T1, 5HT7. Further details: ATCC CRL-1573 (cells). The note with it: cited from earlier work.
Data set [15] addresses T1, 5HT7. Further details: ATCC CRL-1573 (cells). Particulars: reported human receptor data; cited from earlier work.
Setting [16] is: read-out: Affinity Ki ± SEM at 5HT7.
Where [17] appears, read: read-out: Affinity Ki ± SEM at 5HT1A.

Structures are written as SMILES. “And” between values parts separate entries of the source, which are not always exact repeats. Equal entries are not always repeated. Where two headings read alike, the source gives them in different places.

T1 sequence (P34969 whole entry): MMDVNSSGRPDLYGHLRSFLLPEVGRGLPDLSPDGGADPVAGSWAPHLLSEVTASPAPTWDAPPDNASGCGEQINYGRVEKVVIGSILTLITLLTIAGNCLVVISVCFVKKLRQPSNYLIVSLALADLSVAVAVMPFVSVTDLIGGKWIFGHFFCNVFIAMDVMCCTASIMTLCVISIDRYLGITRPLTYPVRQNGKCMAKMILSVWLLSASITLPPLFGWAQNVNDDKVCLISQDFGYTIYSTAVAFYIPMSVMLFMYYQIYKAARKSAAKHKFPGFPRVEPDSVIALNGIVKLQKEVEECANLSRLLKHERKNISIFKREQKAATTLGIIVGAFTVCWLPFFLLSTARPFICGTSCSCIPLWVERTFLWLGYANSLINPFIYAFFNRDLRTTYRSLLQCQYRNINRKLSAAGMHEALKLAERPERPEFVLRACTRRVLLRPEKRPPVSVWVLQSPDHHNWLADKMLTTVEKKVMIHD
T3 sequence (P28223 whole entry): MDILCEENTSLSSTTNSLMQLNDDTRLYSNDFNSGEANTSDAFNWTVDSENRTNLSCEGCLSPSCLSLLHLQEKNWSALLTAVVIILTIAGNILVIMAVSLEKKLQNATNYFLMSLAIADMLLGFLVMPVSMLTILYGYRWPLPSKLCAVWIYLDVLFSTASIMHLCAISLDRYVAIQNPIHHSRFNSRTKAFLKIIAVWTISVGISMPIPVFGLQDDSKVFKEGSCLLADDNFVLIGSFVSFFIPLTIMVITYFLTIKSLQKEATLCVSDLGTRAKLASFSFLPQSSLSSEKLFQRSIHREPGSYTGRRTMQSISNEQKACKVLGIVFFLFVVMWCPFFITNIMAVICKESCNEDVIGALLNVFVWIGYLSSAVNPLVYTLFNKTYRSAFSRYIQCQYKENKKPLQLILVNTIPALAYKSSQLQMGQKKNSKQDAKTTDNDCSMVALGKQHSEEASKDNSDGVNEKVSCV
T4 sequence (P41595 whole entry): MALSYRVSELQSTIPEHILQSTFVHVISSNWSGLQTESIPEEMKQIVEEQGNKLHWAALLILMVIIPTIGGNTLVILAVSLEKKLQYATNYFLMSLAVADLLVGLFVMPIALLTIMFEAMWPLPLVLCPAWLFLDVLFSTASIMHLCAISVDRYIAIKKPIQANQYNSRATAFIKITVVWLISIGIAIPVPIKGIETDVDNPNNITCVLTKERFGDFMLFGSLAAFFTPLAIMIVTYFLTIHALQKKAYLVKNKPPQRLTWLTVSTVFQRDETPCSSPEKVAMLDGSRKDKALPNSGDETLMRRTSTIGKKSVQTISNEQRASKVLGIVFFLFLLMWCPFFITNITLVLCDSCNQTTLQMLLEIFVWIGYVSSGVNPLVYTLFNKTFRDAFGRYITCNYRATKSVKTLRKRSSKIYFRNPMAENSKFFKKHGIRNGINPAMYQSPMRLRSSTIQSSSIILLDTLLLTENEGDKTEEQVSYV

Take `Fc1ccccc1-c1cccc2c1CCC(N1CCCC1)C2` (racemic) [(R/S)-5-FPyT, 1-(5-(2-fluorophenyl)-1,2,3,4-tetrahydronaphthalen-2-yl)-pyrrolidine]: the results for the inhibition constant (Ki) in [1] and in [2] were 51 ± 8 nM and 1.3 ± 0.1 nM, respectively.

As for `CCCN(CCC)C1CCc2cccc(O)c2C1` (single isomer, unassigned; (+)) [(+)-DPAT, reference compound], the “Serotonin syndrome” value in [3] was “obvious serotonin syndrome”. The “DOI-elicited HTR” value in data set [4] is on record as “suppressed the DOI HTR”. Also, the Locomotor behavior result in [5] was “severe hypolocomotion”.

Turning to `CN(C)[C@@H]1CCc2c(cccc2-c2ccccc2F)C1` [(2R)-5-FPT], in [6], the “Function at 5-HT2A receptors” value is given as “neutral antagonist function”. For the same compound, the “DOI-elicited HTR” value in [4] is given as “substantially less efficacious than (2S)-5-FPT”. In addition, in [7], the “5-HT7 agonist potency of (R)-enantiomer less than (S)-isomer” value is on record as “about 11 times”; the response was half-maximal at 378 nM (EC50); the “EMAX vs AS-19, 5-HT7 Gs-cAMP signaling” value is given as 29%; the “Function at 5HT7” value is “partial agonism”. The Ki (usually a measure of affinity in units of concentration, obtained from inhibition or displacement) in [1] (Affinity Ki ± SEM at 5HT7) is 750 nM and ~460 nM. Moreover, in data set [8] (human and mouse 5-HT2A receptors, compared with (2S)-5-FPT), the “Affinity at 5-HT2A receptors” value is recorded as “substantially higher affinity”.

Turning to `CCCN(CCC)[C@H]1CCc2c(cccc2-c2ccccc2Cl)C1` [(S)-5-CPPT, (2S)-5-(2′-chlorophenyl)-N,N-dipropyl-1,2,3,4-tetrahydronaphtha-len-2-amine], the “Function at 5HT7” value in [7] is listed as “Full agonist”. The inhibition constant Ki in data set [1] (setting [16]) turned out to be 5.9 ± 1 nM; in data set [2], 0.6 ± 0.2 nM.

In the case of `CN(C)[C@H]1CCc2c(cccc2-c2ccccc2Cl)C1.Cl` [(S)-5-CPT, (2S)-5-(2-chlorophenyl)-N,N-dimethyl-1,2,3,4-tetrahydronaphthalen-2-amine HCl], the “Activity at 50 CNS/peripheral sites” value in data set [9] was “without activity at 50 CNS/peripheral sites”. Also, the inhibitory constant (Ki) in data set [10] is 11 nM; in [1] (setting [16]), 1 ± 0.12 nM; in data set [2] (setting [17]), 7.5 ± 1.5 nM; in [8] it was ~500 nM. Also, the “Agonist efficacy/potency at 5HT2C receptors” value in data set [11] is “less potency and efficacy”. The “Function at 5HT7” value in data set [7] was “Partial agonist”. Further, the “Function at 5HT1A” value in data set [12] is “Partial agonist”. Also, the 5HT2B functional activity result in data set [13] is given as “devoid of 5HT2B activity up to 100 μM”.

As to `CN(C)[C@H]1CCc2c(cccc2-c2cccc3ccccc23)C1` [(S)-5-NaT, (2S)—N,N-dimethyl-5,6,7,8-tetrahydro-[1,1′-binaphthalen]-6-amine], the “Function at 5HT7” value in [7] was “Partial agonist”. In addition, the Ki came to 5.2 ± 1.1 nM in data set [1] (setting [16]) and 64 ± 12 nM in data set [2] (setting [17]). Also, the “Function at 5HT1A” value in data set [12] is “Partial agonist”.

Regarding `CCCN(CCC)[C@H]1CCc2c(cccc2-c2ccccc2)C1.Cl` [(S)-5-PPT, (2S)-5-phenyl-N,N-dipropyl-1,2,3,4-tetrahydronaphthalen-2-amine HCl], the “Function at 5HT7” value in data set [7] is recorded as “Full agonist”. Also, the inhibition constant (Ki) in data set [1] (setting [16]) is 34 ± 3 nM; in [2] (setting [17]) it was 5.9 ± 1.1 nM.

In the case of `CN(C)[C@H]1CCc2c(cccc2-c2ccccc2)C1.Cl` [(S)-5-PT, N,N-dimethyl-5-phenyl-1,2,3,4-tetrahydronaphthalen-2-amine HCl], the “Function at 5HT7” value in data set [7] is reported as “Neutral antagonist”. Further, the Ki worked out at 9.5 ± 1.5 nM in data set [1] (Affinity Ki ± SEM at 5HT7) and 22 ± 3 nM in [2]. In data set [12], the “Function at 5HT1A” value is listed as “Partial agonist”.

Regarding `CN(C)[C@H]1CCc2c(cccc2-c2cccn2C)C1` [(S)-5-PyT], the “Function at 5HT7” value in data set [7] is “Inverse agonist”; in [7] (listed as 5-PyT), “inverse agonist at 5HT7/Gαs”; in data set [7] (listed as (2S)-5-PyT) it was “inverse agonist”. Besides, the inhibition constant (Ki) in data set [1] (Affinity Ki ± SEM at 5HT7) came out at 33 ± 4 nM; in data set [2], 24 ± 0.2 nM. In addition, the entries for the “Function at 5HT1A” value in [12], in [12] (listed as 5-PyT) and in data set [12] (listed as (2S)-5-PyT) were “Partial agonist”, “agonist at 5HT1A/Gαi” and “agonist”, respectively.

Regarding `Cc1nn(C)c(C)c1-c1cccc2c1CC[C@H](N(C)C)C2` [(S)-AS-19, (2S)-5-trimethylpyrazolyl-2-dimethyl-aminotetralin, reference compound], the “Serotonin syndrome” value in data set [3] is listed as “neither (—)-DPAT, a 5-HT1A partial agonist, nor AS-19 affected locomotor behavior or caused obvious serotonin syndrome”. For the same compound, the “DOI-elicited HTR” value in data set [4] was “suppressed the DOI HTR”. Further, in data set [7], the “Function at 5HT7” value is given as “Partial agonist”. The “Selectivity for 5HT7 over 5HT1A” value in data set [1] (from Ki of Table 1) is given as 20 fold. For the same compound, the inhibition constant Ki in data set [1] (setting [16]) was determined as 12 nM; in data set [2] (setting [17]), 240 nM. Besides, the Locomotor behavior entry in data set [5] is “neither (—)-DPAT, a 5-HT1A partial agonist, nor AS-19 affected locomotor behavior”.

Turning to `CCCN(CCC)C1CCc2cccc(O)c2C1` (stereo not drawn) [(—)-DPAT, reference compound], in data set [3], the “Serotonin syndrome” value was “neither (—)-DPAT, a 5-HT1A partial agonist, nor AS-19 affected locomotor behavior or caused obvious serotonin syndrome”. In addition, in data set [4], the “DOI-elicited HTR” value is “suppressed the DOI HTR”. Further, the Locomotor behavior entry in data set [5] was “neither (—)-DPAT, a 5-HT1A partial agonist, nor AS-19 affected locomotor behavior”.

Take `O=C1CC2(CCCC2)CC(=O)N1CCCCN1CCN(c2ncccn2)CC1` [Buspirone, reference compound]: the “DOI-elicited HTR” value in [4] is “reduces DOI-elicited repetitive behavior”. For the same compound, the Catatonia entry in data set [5] (3 mg/kg, by itself) is listed as “causes stupor-like catatonia”. Besides, the Locomotor behavior entry in [5] was “reduces locomotor behavior”. In addition, the “Function at 5HT1A” value in data set [12] is given as “Partial agonist”.

Turning to `CCCN(CCC)[C@@H]1CCc2cccc(O)c2C1` [Compound 8-OH-DPAT, (R)-8-hydroxy-2-(n-di-propylamino)tetralin], the “Function at 5HT7 (literature)” value in [14] is given as “low-potency 5HT7 partial agonist”.

Consider `N#Cc1ccc(CNC(=O)CCCCCN2CCN(c3ccccc3-c3ccccc3)CC2)cc1` [LP-211], for which the “Selectivity for 5HT7 over 5HT1A receptors” value in [15] is recorded as “about 25 X”.
